# According to article PMC8854719, “Phase 1A/1B dose-escalation and -expansion study to evaluate the safety, pharmacokinetics, food effects and antitumor activity of pamiparib in advanced solid tumours” (British Journal of Cancer, 2021):
# Like-named read-outs stand apart in the source and are kept apart here.
# What was measured:
# [1] = Plasma pharmacokinetics of pamiparib (LC-MS/MS, non-compartmental); set-up: species or system human; conditions: in vivo; for AUC(0-inf): AUC0-inf; for Vd/F: Vz/F
# Procedure: Patients in the dose-escalation phase received a single oral dose of pamiparib on day 1 of cycle 1 to collect samples for single-dose PK assessment over 48 h, followed by continuous daily doses (BID and QD) starting on day 3 of cycle 1 as a 21-day period of repeated drug administration (days 3–23), and then continued every 21-day cycle thereafter until disease progression, toxicity, or patient withdrawal. Eight BID dose levels (2.5, 5, 10, 20, 40, 60, 80, 120 mg) were administered (Fig. 1). After completion of BID dose-escalation, alternative dosing regimens of 120 and 160 mg QD were selected for exploration based on the total daily dose equivalent to the RP2D (60 mg BID) and MTD (80 mg BID), respectively. The QD dosing regimen was added as an amendment to the protocol with the purpose of exploring the feasibility of a more convenient regimen. During the dose-expansion phase, patients received pamiparib 60 mg BID (RP2D from BID dose-escalation phase) continuously from day 1 of cycle 1.
# Pamiparib in plasma was measured using a validated liquid chromatography-tandem–mass spectrometry assay with a lower limit of quantification of 1.0 ng/mL. The collection schedule for blood samples used to assess the PK profile is presented in the Supplemental Appendix. Summary PK parameters, including area under the concentration-time curve from time 0 to 9 h (AUC0-9) or infinity (AUC0-inf), maximal plasma concentration (Cmax) and time to maximal plasma concentration (Tmax), were estimated. The pharmacodynamic (PD) activity of pamiparib was explored through the evaluation of poly(ADP-ribose [PAR]) formation in peripheral blood mononuclear cells (PBMCs) after pamiparib administration. The schedule for blood sample collection (PK and PBMCs) and additional assessment information for PAR levels in PBMCs and pharmacodynamic activity is presented in the Supplemental Appendix. Antitumor activity was assessed by radiographic imaging (computed tomography or magnetic resonance imaging) during screening, within 28 days of first pamiparib dose, every 6 weeks in the first 12 months and every 9 weeks thereafter.
# Descriptive statistics were used to summarise all study data (see Supplemental Appendix). Progression-free survival (PFS) and event-free rates were estimated using the Kaplan–Meier method along with the corresponding 95% CI. Pharmacokinetic parameters were derived using standard non-compartmental methods with Phoenix WinNonlin Version 6.4 or higher (Pharsight Corp., Mountain View, California).
# The PK profile of pamiparib was assessed based on blood samples collected at predose and 0.5, 1, 2, 4, 6, 9, 24, and 48 hours postdose on Days 1-3 and then at predose and 0.5, 1, 2, 4, 6, and 9 hours postdose on Day 17 of Cycle 1 in Phase 1A. Sparse PK samples were collected in phase 1B Part A. The food effect on the PK of pamiparib was assessed based on blood samples collected at predose and 0.5, 1, 2, 4, 7, 24, and 48 hours postdose on Day 1 and Day 6 of Cycle 1 in phase 1B Part B.
# [2] = tested on: BRCA1-mutant breast cancer xenograft model; set-up: method as in PMID 32652442; conditions: cited from earlier work
# [3] = human, 2.5 mg, Single Dose (Cycle 1 Day 1)
# [4] = human, 5 mg, Single Dose (Cycle 1 Day 1)
# [5] = human, 10 mg, Single Dose (Cycle 1 Day 1)
# [6] = human, 20 mg, Single Dose (Cycle 1 Day 1)
# [7] = human, 40 mg, Single Dose (Cycle 1 Day 1)
# [8] = human, 60 mg, Single Dose (Cycle 1 Day 1)
# [9] = human, 80 mg, Single Dose (Cycle 1 Day 1)
# [10] = human, 120 mg, Single Dose (Cycle 1 Day 1)
# [11] = human, 160 mg, Single Dose (Cycle 1 Day 1)
compound,measurement,setting,value
C[C@]12CCCN1CC1=NNC(=O)c3cc(F)cc4[nH]c2c1c34 [pamiparib],"Dose proportionality, AUC0-inf (h*ng/mL): Intercept (95% CI)",[1]; human,5.97 (5.36-6.57)
same,"Dose proportionality, AUC0-inf (h*ng/mL): Slope (95% CI)",[1]; human,1.04 (0.88-1.20)
same,"Dose proportionality, Cmax (ng/mL): Intercept (95% CI)",[1]; human,3.66 (3.34-3.99)
same,"Dose proportionality, Cmax (ng/mL): Slope (95% CI)",[1]; human,0.96 (0.87-1.04)
same,"Accumulation Ratio, AUC0-9","[1]; human, 2.5 mg",2.42
same,"Accumulation Ratio, Cmax","[1]; human, 2.5 mg",2.44
same,"CL/F, Single Dose (Cycle 1 Day 1)","[1]; human, 2.5 mg",4265.3 (34.8) mL/hr
same,"t1/2, Single Dose (Cycle 1 Day 1)","[1]; human, 2.5 mg","12.03 (7.08, 33.87) hr"
same,AUC(0-t),"[1]; human, 2.5 mg, AUC0-9, Single Dose (Cycle 1 Day 1)",385 ng·h/mL
same,AUC(0-t),"[1]; human, 2.5 mg, AUC0-9, Steady State (Cycle 1 Day 17)",931 ng·h/mL
same,AUC(0-inf),[1]; [3],586 ng·h/mL
same,Cmax,[1]; [3],74.5 ng/mL
same,Cmax,"[1]; human, 2.5 mg, Steady State (Cycle 1 Day 17)",182 ng/mL
same,Vd/F,[1]; [3],52.4 L
same,"Accumulation Ratio, AUC0-9","[1]; human, 5 mg",1.93
same,"Accumulation Ratio, Cmax","[1]; human, 5 mg",2.09
same,"CL/F, Single Dose (Cycle 1 Day 1)","[1]; human, 5 mg",2056.9 (49.5) mL/hr
same,AUC(0-t),"[1]; human, 5 mg, AUC0-9, Single Dose (Cycle 1 Day 1)",1100 ng·h/mL
same,AUC(0-t),"[1]; human, 5 mg, AUC0-9, Steady State (Cycle 1 Day 17)",2120 ng·h/mL
same,AUC(0-inf),[1]; [4],2430 ng·h/mL
same,Cmax,[1]; [4],193 ng/mL
same,Cmax,"[1]; human, 5 mg, Steady State (Cycle 1 Day 17)",404 ng/mL
same,Tmax,"[1]; human, 5 mg, Tmax, Steady State (Cycle 1 Day 17)",0.53 h
same,Vd/F,[1]; [4],32.7 L
same,half-life,"[1]; human, 5 mg, t1/2, Single Dose (Cycle 1 Day 1)",11 h
same,"Accumulation Ratio, AUC0-9","[1]; human, 10 mg",1.68
same,"Accumulation Ratio, Cmax","[1]; human, 10 mg",1.59
same,"CL/F, Single Dose (Cycle 1 Day 1)","[1]; human, 10 mg",1359.2 (35.9) mL/hr
same,AUC(0-t),"[1]; human, 10 mg, AUC0-9, Single Dose (Cycle 1 Day 1)",2580 ng·h/mL
same,AUC(0-t),"[1]; human, 10 mg, AUC0-9, Steady State (Cycle 1 Day 17)",4330 ng·h/mL
same,AUC(0-inf),[1]; [5],7360 ng·h/mL
same,Cmax,[1]; [5],412 ng/mL
same,Cmax,"[1]; human, 10 mg, Steady State (Cycle 1 Day 17)",657 ng/mL
same,Tmax,"[1]; human, 10 mg, Tmax, Steady State (Cycle 1 Day 17)",1.05 h
same,Vd/F,[1]; [5],27.6 L
same,half-life,"[1]; human, 10 mg, t1/2, Single Dose (Cycle 1 Day 1)",14.1 h
same,"AUC0-9, Single Dose (Cycle 1 Day 1)","[1]; human, 20 mg",4134.9 (29.9) ng/ml*hr
same,"Accumulation Ratio, AUC0-9","[1]; human, 20 mg",1.82
same,"Accumulation Ratio, Cmax","[1]; human, 20 mg",1.62
same,"CL/F, Single Dose (Cycle 1 Day 1)","[1]; human, 20 mg",2550.4 (58.7) mL/hr
same,"Cmax, Steady State (Cycle 1 Day 17)","[1]; human, 20 mg",1267.6 (19.9) ng/ml
same,AUC(0-t),"[1]; human, 20 mg, AUC0-9, Steady State (Cycle 1 Day 17)",7510 ng·h/mL
same,AUC(0-inf),[1]; [6],7840 ng·h/mL
same,Cmax,[1]; [6],783 ng/mL
same,Tmax,"[1]; human, 20 mg, Tmax, Single Dose (Cycle 1 Day 1)",0.53 h
same,Vd/F,[1]; [6],31.4 L
same,half-life,"[1]; human, 20 mg, t1/2, Single Dose (Cycle 1 Day 1)",8.53 h
same,"Accumulation Ratio, AUC0-9","[1]; human, 40 mg",1.86
same,"Accumulation Ratio, Cmax","[1]; human, 40 mg",1.60
same,"CL/F, Single Dose (Cycle 1 Day 1)","[1]; human, 40 mg",1826.6 (85.8) mL/hr
same,"t1/2, Single Dose (Cycle 1 Day 1)","[1]; human, 40 mg","11.76 (6.24, 24.37) hr"
same,AUC(0-t),"[1]; human, 40 mg, AUC0-9, Single Dose (Cycle 1 Day 1)",8950 ng·h/mL
same,AUC(0-t),"[1]; human, 40 mg, AUC0-9, Steady State (Cycle 1 Day 17)",18300 ng·h/mL
same,AUC(0-inf),[1]; [7],21900 ng·h/mL
same,Cmax,[1]; [7],1750 ng/mL
same,Cmax,"[1]; human, 40 mg, Steady State (Cycle 1 Day 17)",2940 ng/mL
same,Tmax,"[1]; human, 40 mg, Tmax, Steady State (Cycle 1 Day 17)",1.5 h
same,Vd/F,[1]; [7],31 L
same,"AUC0-9, Single Dose (Cycle 1 Day 1)","[1]; human, 60 mg",10403.7 (29.2) ng/ml*hr
same,"CL/F, Single Dose (Cycle 1 Day 1)","[1]; human, 60 mg",1874.7 (55.4) mL/hr
same,Geometric mean half-life,"[1]; human, 60 mg",13.5 h
same,"t1/2, Single Dose (Cycle 1 Day 1)","[1]; human, 60 mg","13.50 (7.14, 24.61) hr"
same,AUC(0-t),"[1]; human, 60 mg, AUC0-9, Steady State (Cycle 1 Day 17)",25200 ng·h/mL
same,AUC(0-inf),[1]; [8],32000 ng·h/mL
same,Cmax,[1]; [8],1880 ng/mL
same,Cmax,"[1]; human, 60 mg, Steady State (Cycle 1 Day 17)",3830 ng/mL
same,Vd/F,[1]; [8],36.5 L
same,"Accumulation Ratio, AUC0-9","[1]; human, 80 mg",2.07
same,"Accumulation Ratio, Cmax","[1]; human, 80 mg",1.96
same,"CL/F, Single Dose (Cycle 1 Day 1)","[1]; human, 80 mg",2786.6 (56.0) mL/hr
same,"Cmax, Single Dose (Cycle 1 Day 1)","[1]; human, 80 mg",2317.8 (43.0) ng/ml
same,AUC(0-t),"[1]; human, 80 mg, AUC0-9, Single Dose (Cycle 1 Day 1)",13200 ng·h/mL
same,AUC(0-t),"[1]; human, 80 mg, AUC0-9, Steady State (Cycle 1 Day 17)",25300 ng·h/mL
same,AUC(0-inf),[1]; [9],28700 ng·h/mL
same,Cmax,"[1]; human, 80 mg, Steady State (Cycle 1 Day 17)",4350 ng/mL
same,Tmax,"[1]; human, 80 mg, Tmax, Single Dose (Cycle 1 Day 1)",1.98 h
same,Tmax,"[1]; human, 80 mg, Tmax, Steady State (Cycle 1 Day 17)",1.08 h
same,Vd/F,[1]; [9],38.5 L
same,half-life,"[1]; human, 80 mg, t1/2, Single Dose (Cycle 1 Day 1)",9.58 h
same,"AUC0-9, Steady State (Cycle 1 Day 17)","[1]; human, 120 mg",36558.4 (32.4) ng/ml*hr
same,"AUC0-inf, Single Dose (Cycle 1 Day 1)","[1]; human, 120 mg",68952.9 (43.3) ng/ml*hr
same,"Cmax, Single Dose (Cycle 1 Day 1)","[1]; human, 120 mg",3752.8 (41.1) ng/ml
same,"Cmax, Steady State (Cycle 1 Day 17)","[1]; human, 120 mg",6059.1 (27.7) ng/ml
same,"Vz/F, Single Dose (Cycle 1 Day 1)","[1]; human, 120 mg",31373.9 (13.9) mL
same,"t1/2, Single Dose (Cycle 1 Day 1)","[1]; human, 120 mg","14.29 (9.83, 30.30) hr"
same,AUC(0-t),"[1]; human, 120 mg, AUC0-9, Single Dose (Cycle 1 Day 1)",21100 ng·h/mL
same,AUC(0-t),"[1]; human, 120 mg, AUC0-9, Steady State (Cycle 1 Day 17)",26900 ng·h/mL
same,AUC(0-inf),[1]; [10],52000 ng·h/mL
same,Cmax,[1]; [10],3590 ng/mL
same,Cmax,"[1]; human, 120 mg, Steady State (Cycle 1 Day 17)",4530 ng/mL
same,Tmax,"[1]; human, 120 mg, Tmax, Single Dose (Cycle 1 Day 1)",1.95 h
same,Vd/F,[1]; [10],36.3 L
same,half-life,"[1]; human, 120 mg, t1/2, Single Dose (Cycle 1 Day 1)",10.9 h
same,"Accumulation Ratio, AUC0-9","[1]; human, 160 mg",1.47
same,"Accumulation Ratio, Cmax","[1]; human, 160 mg",1.27
same,"CL/F, Single Dose (Cycle 1 Day 1)","[1]; human, 160 mg",1569.1 (44.8) mL/hr
same,AUC(0-t),"[1]; human, 160 mg, AUC0-9, Single Dose (Cycle 1 Day 1)",31800 ng·h/mL
same,AUC(0-t),"[1]; human, 160 mg, AUC0-9, Steady State (Cycle 1 Day 17)",45300 ng·h/mL
same,AUC(0-inf),[1]; [11],102000 ng·h/mL
same,Cmax,[1]; [11],5340 ng/mL
same,Cmax,"[1]; human, 160 mg, Steady State (Cycle 1 Day 17)",6870 ng/mL
same,Vd/F,[1]; [11],34.5 L
same,half-life,"[1]; human, 160 mg, t1/2, Single Dose (Cycle 1 Day 1)",15.2 h
same,half-life,"[1]; human, Mean terminal half-life",~13 h
same,Tmax,"[1]; human, Median Tmax",1 to 2 h
same,Tmax,"[1]; human, BID 2.5 mg, N 4, read-out: Tmax, Steady State (Cycle 1 Day 17)",0.54 h
same,AUC0-9,"[1]; human, QD 120 mg, N 8, read-out: AUC0-9, Single Dose (Cycle 1 Day 1)",21700 ng·h/mL
same,Exposure (Cmax and AUC0-inf) versus dose,[1],dose-proportional increase
same,Efficacy (tumour regression) compared with olaparib,[2],16 fold
